In patent US20070128217A1 (priority 2003, published 2007):

Experiments:
[1] = system: antibodies in sera from SARS patients (sera 1a, 1b, 2, 6, 37, 62, London, SARS-yellow, SARS-green); assay type: binding, human; set-up: Binding of serum 6 to linear peptides of protein X1 of SARS-CoV Urbani / Binding of serum 37 to linear peptides of protein X1 of SARS-CoV Urbani / Binding of serum 6 to looped/cyclic peptide (PEPSCAN-ELISA) / Binding of serum 37 to looped/cyclic peptide (PEPSCAN-ELISA) / Binding of serum 37 to looped/cyclic peptides of protein X1 of SARS-CoV Urbani / Binding of serum 6 to linear peptides of protein X2 / Binding of serum 37 to linear peptides of protein X2 / Binding of serum 37 to looped/cyclic peptides of protein X2 of SARS-CoV Urbani / Binding of serum 6 to linear peptides of protein M of SARS-CoV Urbani / Binding of serum 37 to linear peptides of protein M of SARS-CoV Urbani / Binding of serum 6 to looped/cyclic peptides of protein M of SARS-CoV Urbani / Binding of serum 37 to looped/cyclic peptides of protein M of SARS-CoV Urbani / Binding of serum 6 to linear peptides of protein X3 of SARS-CoV Urbani / Binding of serum 37 to linear peptides of protein X3 of SARS-CoV Urbani / Binding of serum 37 to looped/cyclic peptides of protein X3 of SARS-CoV Urbani / Binding of serum 6 to linear peptides of protein X4 of SARS-CoV Urbani / Binding of serum 37 to linear peptides of protein X4 of SARS-CoV Urbani / Binding of serum 37 to looped/cyclic peptides of protein X4 of SARS-CoV Urbani / Binding of serum 6 to linear peptides of protein X5 of SARS-CoV Urbani / Binding of serum 37 to linear peptides of protein X5 of SARS-CoV Urbani / Binding of serum 37 to looped/cyclic peptides of protein X5 of SARS-CoV Urbani / Binding of serum 6 to linear peptides of protein N of SARS-CoV Urbani / Binding of serum 37 to linear peptides of protein N of SARS-CoV Urbani / Binding of serum 6 to linear peptide (PEPSCAN-ELISA) / Binding of serum 1a to looped/cyclic peptides of protein N of SARS-CoV Urbani / Binding of serum 1b to looped/cyclic peptides of protein N of SARS-CoV Urbani / Binding of serum 2 to looped/cyclic peptides of protein N of SARS-CoV Urbani / Binding of serum 6 to looped/cyclic peptides of protein N of SARS-CoV Urbani / Binding of serum 37 to looped/cyclic peptides of protein N of SARS-CoV Urbani / Binding of serum 62 to looped/cyclic peptides of protein N of SARS-CoV Urbani / Binding of serum London to looped/cyclic peptides of protein N of SARS-CoV Urbani / Binding of serum SARS-green to looped/cyclic peptides of protein N of SARS-CoV Urbani: unit not given here
[2] = system: control sera (pooled serum of ten healthy LUMC hospital workers; commercial negative donor pooled serum from the Dutch bloodbank); assay type: binding, human; set-up: Binding of Control serum LUMC to linear peptides / Binding of Control serum Blood-bank to linear peptides / Binding of Control serum LUMC to looped peptides / Binding of Control Serum Blood-Bank to Looped peptides / Binding of Control serum LUMC to linear peptides of the protein M of SARS-CoV Urbani / Binding of Control serum Blood-bank to linear peptides of the protein M of SARS-CoV Urbani / Binding of Control serum LUMC to looped peptides of the protein M of SARS-CoV Urbani / Binding of Control Serum Blood-Bank to Looped peptides of the protein M of SARS-CoV Urbani: unit not given here
[3] = system: rabbit serum obtained by immunizing a rabbit with the SARS-CoV strain Frankfurt 1; assay type: binding; set-up: Binding of a rabbit serum to linear peptides / Binding of a rabbit serum to looped peptides / Rabbit serum linear peptides / Rabbit serum looped peptides / Binding of a rabbit serum to linear peptides of protein N of SARS-CoV Urbani (Rabbit serum linear peptides) / Binding of a rabbit serum to looped/cyclic peptides of protein N of SARS-CoV Urbani (Rabbit serum looped peptides): unit not given here
[4] = system: recombinant human anti-SARS-CoV antibody 03-018; assay type: binding; set-up: Binding of antibody 03-018 to linear peptides of the N protein of SARS-CoV Urbani / Binding of antibody 03-018 to looped/cyclic peptides of the N protein of SARS-CoV Urbani: unit not given here

Sequence	Binding of serum 1a to linear peptides of protein N of SARS-CoV Urbani [1]	Binding of serum 1a to looped/cyclic peptides of protein N of SARS-CoV Urbani [1]	Binding of serum 1b to linear peptides of protein N of SARS-CoV Urbani [1]	Binding of serum 1b to looped/cyclic peptides of protein N of SARS-CoV Urbani [1]	Binding of serum 2 to linear peptides of protein N of SARS-CoV Urbani [1]	Binding of serum 2 to looped/cyclic peptides of protein N of SARS-CoV Urbani [1]	Binding of serum 6 to linear peptides of protein N of SARS-CoV Urbani [1]	Binding of serum 6 to looped/cyclic peptides of protein N of SARS-CoV Urbani [1]	Binding of serum 37 to linear peptides of protein N of SARS-CoV Urbani [1]	Binding of serum 37 to looped/cyclic peptides of protein N of SARS-CoV Urbani [1]	Binding of serum 62 to linear peptides of protein N of SARS-CoV Urbani [1]	Binding of serum 62 to looped/cyclic peptides of protein N of SARS-CoV Urbani [1]	Binding of serum London to linear peptides of protein N of SARS-CoV Urbani [1]	Binding of serum London to looped/cyclic peptides of protein N of SARS-CoV Urbani [1]	Binding of serum SARS-green to linear peptides of protein N of SARS-CoV Urbani [1]	Binding of serum SARS-green to looped/cyclic peptides of protein N of SARS-CoV Urbani [1]	Binding of serum SARS-yellow to linear peptides of protein N of SARS-CoV Urbani [1]	Binding of serum SARS-yellow to looped/cyclic peptides of protein N of SARS-CoV Urbani [1]	Binding of a rabbit serum to linear peptides of protein N of SARS-CoV Urbani (Rabbit serum linear peptides) [3]	Binding of a rabbit serum to looped/cyclic peptides of protein N of SARS-CoV Urbani (Rabbit serum looped peptides) [3]	other results
KELSPRWYFYYLGTG	0.2	0.4	0.1	0.2	0.1	0.4	0.1	0.3	0.4	0.7	0.4	0.5	0.4	0.4	0.1	0.4	0.5	0.3	0.0	0.4	Binding of Control Serum Blood-Bank to Looped peptides [2]: 0.7; Binding of Control serum Blood-bank to linear peptides [2]: 0.4; Binding of Control serum LUMC to linear peptides [2]: 0.4; Binding of Control serum LUMC to looped peptides [2]: 0.6; Binding of antibody 03-018 to linear peptides of the N protein of SARS-CoV Urbani [4]: 0.1; Binding of antibody 03-018 to looped/cyclic peptides of the N protein of SARS-CoV Urbani [4]: 0.3
NVILLNKHIDAYKTF	0.2	0.5	0.1	0.3	0.2	0.4	0.1	0.3	0.7	0.7	0.6	0.7	0.5	0.9	0.3	0.3	0.6	0.7	0.2	0.6	Control Serum Blood-Bank Looped peptides [2]: 0.8; Control serum Blood-bank linear peptides [2]: 0.7; Control serum LUMC linear peptides [2]: 0.7; Control serum LUMC looped peptides [2]: 0.7; Binding of antibody 03-018 to linear peptides of the N protein of SARS-CoV Urbani [4]: 0.1; Binding of antibody 03-018 to looped/cyclic peptides of the N protein of SARS-CoV Urbani [4]: 0.2
AADMDDFSRQLQNSM	0.3	0.3	0.2	0.2	0.2	0.3	1.2	1.6	0.7	0.5	0.6	0.3	0.7	0.2	0.4	0.2	0.7	0.2	0.2	0.3	Control Serum Blood-Bank Looped peptides [2]: 0.4; Control serum Blood-bank linear peptides [2]: 0.8; Control serum LUMC linear peptides [2]: 0.7; Control serum LUMC looped peptides [2]: 0.3; Binding of antibody 03-018 to linear peptides of the N protein of SARS-CoV Urbani [4]: 0.2; Binding of antibody 03-018 to looped/cyclic peptides of the N protein of SARS-CoV Urbani [4]: 0.2
NQRSAPRITFGGPTD	0.2	0.4	0.1	0.3	0.1	0.4	0.1	0.2	0.7	0.6	0.6	0.4	0.5	0.4	0.3	0.5	0.5	0.7	0.3	0.4	Binding of Control Serum Blood-Bank to Looped peptides [2]: 0.6; Binding of Control serum Blood-bank to linear peptides [2]: 0.6; Binding of Control serum LUMC to linear peptides [2]: 0.5; Binding of Control serum LUMC to looped peptides [2]: 0.7; Recognition of the peptide by antibody 03-018 [4]: recognized
